Patent US5620676A, “Biologically active ATP analogs” (priority 1995, dated 1997)
Values joined by “and” are separate entries in the source; they are usually repeats but may differ in a detail not shown here. Identical values can stand only once. “Also recorded” adds a separate entry of the source. Like-named read-outs stand apart in the source and are kept apart here.

How the values were obtained:
[1] = test system: P2Y receptor (aorta endothelium); test: Relaxation of noradrenalin-contracted rabbit aorta; details: for relaxation pD2, aorta: rabbit aorta, log molar units
[2] = molecular target: T1, adenylyl cyclase linked P2Y receptor (C6 rat glioma cells) (Rattus norvegicus, UniProt Q9EPX4); test: Inhibition of adenylyl cyclase in C6 rat glioma cells; assay type: cell-based; details: for IC50: C6 rat glioma cells, 10 μM isoproterenol, read-out: K0.5 values (in nM) for inhibition of adenylyl cyclase in C6 cells; for selectivity for the adenylyl cyclase linked (C6 cell) receptor: versus phospholipase C linked turkey erythrocyte receptor; for selectivity for the adenylyl cyclase linked receptor, in words: versus phospholipase C linked receptor
T1 construct: endogenous in cells; host or cells: C6 rat glioma cells
T1 sequence (Q9EPX4 whole entry): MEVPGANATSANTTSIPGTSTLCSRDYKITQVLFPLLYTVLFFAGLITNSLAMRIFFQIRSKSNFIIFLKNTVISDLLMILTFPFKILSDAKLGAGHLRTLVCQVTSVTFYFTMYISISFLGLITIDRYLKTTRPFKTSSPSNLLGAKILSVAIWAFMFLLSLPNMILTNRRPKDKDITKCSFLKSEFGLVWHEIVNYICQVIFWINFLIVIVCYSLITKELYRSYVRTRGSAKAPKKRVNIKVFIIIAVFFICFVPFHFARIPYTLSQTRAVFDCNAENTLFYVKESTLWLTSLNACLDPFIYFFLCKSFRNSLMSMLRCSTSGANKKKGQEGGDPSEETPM
Experimental: This example illustrates the inhibition of adenylyl cyclase activity in C6 rat glioma cells, as a function of the presence of certain ATP analogs in the medium in which the C6 cells were cultured.
Cells were labelled by incubation for 2 hours in the presence of 1 to 2 mCi of tritiated adenine/ml in the medium. Cells were washed twice with HEPES (20 mM, pH 7.5)-buffered Eagle's medium and then preincubated for 10 minutes at 37° C. with fresh medium containing 200 μM 3-isobutyl-1-methylxanthine. Agonist incubations were initiated by the simultaneous addition of 10 μM isoproterenol and various concentrations of nucleotides. The reactions were stopped after 10 minutes of aspiration of the nucleotide-containing medium and addition of 1 ml of ice-cold 5% trichloroacetic acid.

[3] = molecular target: T2, P2Y receptor (turkey erythrocyte membranes) (Meleagris gallopavo, UniProt P49652); test: Stimulation of phospholipase C (inositol phosphate formation) in turkey erythrocyte membranes; assay type: biochemical
T2 construct: from tissue; host or cells: washed turkey erythrocytes, ghosts prepared by hypotonic lysis
T2 sequence (P49652 whole entry): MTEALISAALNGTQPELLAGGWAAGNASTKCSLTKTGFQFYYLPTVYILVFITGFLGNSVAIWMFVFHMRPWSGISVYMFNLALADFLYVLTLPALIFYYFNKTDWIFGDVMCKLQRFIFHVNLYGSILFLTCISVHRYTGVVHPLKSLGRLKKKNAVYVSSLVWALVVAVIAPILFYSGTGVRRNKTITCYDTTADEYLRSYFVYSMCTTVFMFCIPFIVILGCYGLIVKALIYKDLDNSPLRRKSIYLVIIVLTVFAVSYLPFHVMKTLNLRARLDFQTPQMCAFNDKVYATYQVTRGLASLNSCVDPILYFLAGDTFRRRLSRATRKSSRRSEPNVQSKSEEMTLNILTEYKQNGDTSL
Experimental: Phospholipase C activity: Stimulation of inositol phosphate formation by compounds of the present invention was measured in turkey erythrocyte membranes as described by Harden et al., supra and Boyer et al., supra. The K0.5 values were averaged from 3-8 independently determined dose-response curves for each compound. Briefly, one ml of washed turkey erythrocytes was incubated in inositol-free medium (DMEM; Gibco) with 0.5-1 mCi of 2-[^3 H]myoinositol (20 Ci/mmol; American Radiolabeled Chemicals Inc., St. Louis, Mo.)for 18-24 h in a humidified atmosphere of 95% air 5% CO2 at 37° C. Erythrocyte ghosts were prepared by rapid lysis in hypotonic buffer (5 mM sodium phosphate, pH 7.4, 5 mM MgCl2, 1 mM EGTA) as described by Boyer et al., supra. Phospholipase C activity was measured in 25 μl of [^3 H]inositol-labeled ghosts (≈175 μg of protein, 200-500,000 cpm/assay) in a medium containing 424 μM CaC12, 0.91 mM MgSO4, 2 mM EGTA, 115 mM KCl, 5 mM KH2 PO4, and 10 mM Hepes, pH 7.0. Assay (100 μl or 200 μl final volume) contained 1 μM GTPγS and the indicated concentrations of nucleotide analogs. Ghosts were incubated at 30° C. for 5 min, and total [^3 H]inositol phosphates were quantitated after purification by anion exchange chromatography according to Harden et al. (supra) and Boyer et al. (supra).
(§1) Phospholipase C activity and muscle relaxation/contraction effects were assessed using the methods recited in Example 3. In FIGS. 10-12, which present the result of assays of phospholipase C activity in turkey erythrocyte membranes, the x-axis is marked in units of the log of the molar concentration of the putative P2Y receptor agonist tested and the y-axis is marked in units of the percentage of maximum production of [^3 H]-inositol phosphate generated. In FIG. 13, the x-axis is marked in units of the negative log of the molar concentration of applied putative P2Y receptor agonists and the y-axis is marked in units of the percentage relaxation of the 50 nM carbachol-induced contraction of guinea pig taenia coli. In FIG. 14, the x-axis is also marked in units of the negative log of the molar concentration of applied putative P2Y receptor agonists and the y-axis is marked in units of the percentage relaxation of the 1 μM noradrenalin-induced contraction of rabbit aorta endothelium. In FIGS. 15-16, the x-axis is marked in units of the negative log of the molar concentration of applied putative p^2X receptor agonists and the y-axis is marked in units of the percentage contraction relative to a standard dose of KCl (i.e., 60 mM), as assessed in guinea pig isolated urinary bladder detrussor muscle (FIG. 15) and guinea pig isolated vas deferens (FIG. 16).

[4] = molecular target: P2Y receptor (mesenteric artery); test: Relaxation of rabbit mesenteric artery; details: for relaxation pD2, mes. artery: log molar units
[5] = molecular target: T3, P2Y receptor (taenia coli) (Cavia porcellus, UniProt P59902); test: Relaxation of carbachol-contracted guinea pig taenia coli; details: for activity/potency in words, taenia coli: guinea pig taenia coli
T3 construct: Relaxant responses mediated via P2Y receptors were examined in guinea pig taenia coli; from tissue; host or cells: guinea pig taenia coli (carbachol-contracted)
T3 sequence (P59902 whole entry): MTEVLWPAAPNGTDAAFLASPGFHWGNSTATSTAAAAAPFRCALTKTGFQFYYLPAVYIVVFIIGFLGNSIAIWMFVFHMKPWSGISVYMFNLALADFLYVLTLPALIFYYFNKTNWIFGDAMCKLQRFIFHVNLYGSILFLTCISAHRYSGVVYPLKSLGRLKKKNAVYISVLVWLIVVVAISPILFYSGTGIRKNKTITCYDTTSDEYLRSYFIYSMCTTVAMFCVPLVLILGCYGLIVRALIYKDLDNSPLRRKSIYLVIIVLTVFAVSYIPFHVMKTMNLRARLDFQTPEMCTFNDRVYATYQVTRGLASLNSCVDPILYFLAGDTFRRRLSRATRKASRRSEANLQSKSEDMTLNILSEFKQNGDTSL
Text: (§2) Muscular relaxation/contraction: Relaxant responses mediated via P2Y receptors were examined in guinea pig taenia coli, rabbit aorta, and rabbit mesenteric artery, as described by Hoyle et al. (Br. J. Pharmacol., 107, 367-374 (1992a)), Burnstock et al., (Br. J. Pharmacol., 90, 383-391 (1987a)), and Rubino et al., (Eur. J. Pharmacol., 212, 237-240 (1992)). Contractile responses mediated via P2X receptors were examined in the guinea pig urinary bladder and vas deferens, and rabbit saphenous artery, also using standard methods (see Hoyle et al., supra., 1992; Hoyle et al., Br. J. Pharmacol., 99, 617-621 (1990); and Burnstock et al., Br. J. Pharmacol., 90, 111-120 (1987b)).
Muscular relaxation assays were performed as recited in Example 3. […] All curves are the mean of two determinations except for 5'-ATP (n=38), 2-hexylthio-ATP (n=4), 2-(5-hexenyl)thio-ATP (n=3), and 2-(2-4-nitrophenylethyl)thio-AMP (n=5). […] The pD2 value for 2-methylthio-ATP is 8.0±0.15, as reported by Hoyle et al., in Receptor Data for Biological Experiments, (H. N. Doods and J. C. A. Van Meel, eds., 1992b) at pp. 54-61.
as §1

[6] = molecular target: T4, P2X receptor (saphenous artery) (Oryctolagus cuniculus, UniProt G1U3D6); test: Contraction of rabbit saphenous artery; details: rabbit saphenous artery
T4 construct: and rabbit saphenous artery; from tissue; host or cells: rabbit saphenous artery
T4 sequence (G1U3D6 1-399): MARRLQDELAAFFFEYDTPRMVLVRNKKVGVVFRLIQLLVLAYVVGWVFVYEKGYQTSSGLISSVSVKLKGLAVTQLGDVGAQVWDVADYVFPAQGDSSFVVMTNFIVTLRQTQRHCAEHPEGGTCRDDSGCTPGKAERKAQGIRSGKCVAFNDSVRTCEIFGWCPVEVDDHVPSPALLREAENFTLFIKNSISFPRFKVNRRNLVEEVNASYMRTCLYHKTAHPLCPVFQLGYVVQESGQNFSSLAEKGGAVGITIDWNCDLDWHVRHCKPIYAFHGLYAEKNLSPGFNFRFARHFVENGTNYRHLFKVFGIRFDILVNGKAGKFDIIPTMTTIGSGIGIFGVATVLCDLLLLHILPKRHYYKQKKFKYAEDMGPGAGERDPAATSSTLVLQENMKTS
Text: as §2
^c For the saphenous artery, the percentages in brackets are response
at 10 μM relative to the contraction produced by 1 μM α,MeATP
ATP in this assay is very weak (EC50 =
1.78 mM). The highest concentrations of the analogues tested were 3-30

[7] = molecular target: T5, P2X receptor (vas deferens) (Cavia porcellus, UniProt A0A286XVA9); test: Contraction of guinea pig isolated vas deferens
T5 sequence (A0A286XVA9 1-399): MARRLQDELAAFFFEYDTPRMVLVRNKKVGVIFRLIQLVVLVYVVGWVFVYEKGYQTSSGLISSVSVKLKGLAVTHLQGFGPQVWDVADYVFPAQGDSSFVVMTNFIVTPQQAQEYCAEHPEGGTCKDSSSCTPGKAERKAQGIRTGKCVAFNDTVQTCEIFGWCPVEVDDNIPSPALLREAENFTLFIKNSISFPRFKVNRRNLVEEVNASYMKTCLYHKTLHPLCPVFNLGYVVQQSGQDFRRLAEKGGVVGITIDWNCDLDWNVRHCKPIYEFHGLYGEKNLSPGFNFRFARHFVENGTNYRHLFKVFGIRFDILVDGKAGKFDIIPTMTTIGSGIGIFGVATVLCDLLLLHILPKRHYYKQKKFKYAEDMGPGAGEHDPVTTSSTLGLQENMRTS

[8] = molecular target: T6, P2X receptor (urinary bladder) (Cavia porcellus, UniProt A0A286XVA9); test: Contraction of guinea pig isolated urinary bladder detrussor muscle; details: guinea pig urinary bladder
T6 construct: guinea pig isolated urinary bladder detrussor muscle; from tissue; host or cells: guinea pig isolated urinary bladder detrusor muscle

[9] = turkey erythrocyte membranes, mean ± S.E.M. for at least 2 determinations, read-out: phosphatidyl inositol metabolism (K0.5, nM) erythrocyte
[10] = turkey erythrocyte membranes, read-out: K0.5

activity/potency in words, saphenous artery [6]	activity/potency in words, mesenteric artery [4]	SMILES	relaxation pD2, aorta [1]	IC50 [2]	selectivity for the adenylyl cyclase linked (C6 cell) receptor [2]	activity/potency in words, turkey erythrocyte ([3]; turkey erythrocyte membranes)	EC50 [3, 9]	EC50 [3, 10]	relaxation pD2, mes. artery [4]	EC50 [5]	activity/potency in words, taenia coli [5]	activation at 10 µM ([6]; 10 μM, read-out: response at 10 μM relative to the contraction produced by 1 μM α,MeATP, saph. artery)	selectivity for the adenylyl cyclase linked receptor, in words [2]	fold less potent than the corresponding triphosphate, turkey erythrocyte ([3]; relative to corresponding triphosphate)	EC50 ([3]; K0.5, turkey erythrocyte membranes, read from graph)	fold less potent than ATP, turkey erythrocyte ([3]; relative to ATP)	activity/potency in words, vas deferens [7]	activity/potency in words, bladder [8]	activity/potency/selectivity in words, aorta ([1]; rabbit aorta endothelial P2Y receptor)
		CCCCCCSc1nc(N)c2ncn([C@@H]3O[C@H](COP(=O)(O)OP(=O)(O)OP(=O)(O)O)[C@@H](O)[C@H]3O)c2n1 [2-Hexylthio-ATP, 2-hexylthio-ATP]	6.7	0.03 ± 0.005 nM	170 -fold	at least two orders of magnitude more potent	5 ± 1 nM	5 to 30 nM	6.7	31.6 nM	significantly more potent than ATP itself, at least by one order of magnitude								
		Nc1nc(SCCc2ccc([N+](=O)[O-])cc2)nc2c1ncn2[C@@H]1O[C@H](COP(=O)(O)OP(=O)(O)OP(=O)(O)O)[C@@H](O)[C@H]1O [2-(2-p-Nitrophenylethyl)-thio-ATP, 2[2-(p-Nitrophen)ethylthio]adenosine 5'-triphosphate]	6.2	1 ± 0.4 nM		at least two orders of magnitude more potent	12 ± 4 nM	5 to 30 nM	7.0	31.6 nM		2.6%	only moderate selectivity for C6 cell receptors						
		C=CCCCCSc1nc(N)c2ncn([C@@H]3O[C@H](COP(=O)(O)O)[C@@H](O)[C@H]3O)c2n1 [2-(5-Hexenyl)thio-AMP, 2-(5-hexenylthio)adenosine 5'-monophosphate]	7.0	2 ± 0.18 nM			328 ± 43 nM		6.3	1000 nM				33 -fold					
		Nc1ncnc2c1ncn2[C@@H]1O[C@H](COP(=O)(O)OP(=O)(O)O)[C@@H](O)[C@H]1O [ADP, adenosine 5'-diphosphate, reference compound]	5.2		120 -fold		8000 ± 2000 nM		5.2		equipotent to ATP				3160 nM	3 -fold	less potent than ATP	equipotent with ATP	
		C=CCCCCSc1nc(N)c2ncn([C@@H]3O[C@H](COP(=O)(O)OP(=O)(O)O)[C@@H](O)[C@H]3O)c2n1 [2-(5-Hexenyl)thio-ADP, 2-(5-hexenylthio)-adenosine 5'-diphosphate]		0.07 ± 0.02 nM			6.8 ± 3 nM	4 nM		3.63 nM			approximately the same degree of selectivity						
inactive	inactive	O=c1[nH]c(=O)n([C@@H]2O[C@H](COP(=O)(O)OP(=O)(O)OP(=O)(O)O)[C@@H](O)[C@H]2O)cc1F [5-F-UTP, 5-Fluorouridine 5'-triphosphate]	6.0			only a weak agonist	> 100000 nM				only a weak agonist						inactive; also recorded: without effect in the vas deferens	more potent than ATP; also recorded: as potent as or more potent than ATP in the bladder	more potent than ATP
		C=CCCCCSc1nc(N)c2ncn([C@@H]3O[C@H](COP(=O)(O)OP(=O)(O)OP(=O)(O)O)[C@@H](O)[C@H]3O)c2n1 [2-(S-Hexenyl)thio-ATP, 2-(5-hexenylthio)adenosine 5'-triphosphate]		0.12 ± 0.06 nM		at least two orders of magnitude more potent	10 ± 4 nM	5 to 30 nM and 10 nM	7.0	12.6 nM	significantly more potent than ATP itself, at least by one order of magnitude								
